Laboratory results reported in patent publication EP0179386A2, “1,4-Dihydropyridine hydroxyamines, process for their preparation and their use as pharmaceutical agents” (BAYER AG, priority 1984, dated 1986).

Experiments:
[1] = system: Isoprenalin stimulierten Ratten; experiment: Lowering of heart rate in rats stimulated with subcutaneous isoprenaline; type: in vivo; settings: anaesthetised rats, 1 mg/kg i.v., heart rate stimulated by subcutaneous isoprenaline
Procedure: In einem zweiten Test wird die Herzfrequenz von Ratten durch subkutane Applikation von Isoprenalin stimuliert. Dann werden die erfindungsgemäßen Verbindungen appliziert (1 mg/kg i.v.) und 'der Effekt auf die Erniedrigung der Herzfrequenz gemessen.

normotonen Ratten = experiment: Blood pressure before and after i.v. application in anaesthetised normotensive rats; type: in vivo; settings: Rattus norvegicus, iv, 1 mg/kg i.v., read-out: BD: Blutdrucksenkung in % bei normotonen Ratten
Procedure: Die erfindungsgemäßen neuen Verbindungen werden Ratten mit einer Dosis von 1 mg/kg intravenös appliziert und der Blutdruck vor und nach der Applikation bestimmt.

| SMILES | HR: Erniedrigung der Herzfrequenz in absoluten Zahlen bei Isoprenalin stimulierten Ratten (subkutane Applikation) [1] | inhibition in vivo at 1 mg/kg (normotonen Ratten) |
| --- | --- | --- |
| COC(=O)C1=C(C)NC(C)=C(C(=O)OCCN(C)CCCNCC(O)COc2cccc3ccccc23)C1c1cccc([N+](=O)[O-])c1 (centres unmarked) [Beispiel 32] | ↓ (15 - < 40) | 10 to 20% |
| CC1=C(C(=O)OCCOCCNCC(O)COc2cccc3ccccc23)C(c2cccc([N+](=O)[O-])c2)C(C(=O)OC(C)C)=C(C)N1 (centres unmarked) [Beispiel 30] | (↓) (10) | 30 to 40% |
| CC1=C(C(=O)OCCNCC(O)COc2cccc3ccccc23)C(c2cccc([N+](=O)[O-])c2)C(C(=O)OC(C)C)=C(C)N1 (centres unmarked) [Beispiel 1] | ↓↓ (40 < 65) | 20 to 30% |
| COC(=O)C1=C(C)NC(C)=C(C(=O)OCCOCCNCC(O)COc2cccc3ccccc23)C1c1cccc([N+](=O)[O-])c1 (centres unmarked) [Beispiel 20] | ↓↓ (40 < 65) | 10 to 20% |
| CC1=C(C(=O)OCCCNCC(O)COc2cccc3[nH]ccc23)C(c2cccc([N+](=O)[O-])c2)C(C(=O)OC(C)C)=C(C)N1 (centres unmarked) [Beispiel 26] | ↓↓↓ (65 < 100) | 10 to 20% |
| COC(=O)C1=C(C)NC(C)=C(C(=O)OCCNCC(O)COc2cccc3ccccc23)C1c1ccccc1[N+](=O)[O-] (centres unmarked) [Beispiel 69] | ↓ (15 - < 40) | 10 to 20% |
| COC(=O)C1=C(C)NC(C)=C(C(=O)OCCCCCNCC(O)COc2cccc3ccccc23)C1c1cccc([N+](=O)[O-])c1 (centres unmarked) [Beispiel 16] | ↓ (15 - < 40) | 10 to 20% |
| COC(=O)C1=C(C)NC(C)=C(C(=O)OCCNCC(O)COc2ccc(CC(N)=O)cc2)C1c1cccc([N+](=O)[O-])c1 (centres unmarked) [Beispiel 25] | ↓ (15 - < 40) | 5 to 10% |
| COC(=O)C1=C(C)NC(C)=C(C(=O)OCCNCC(O)COc2cccc3ccccc23)C1c1cccc(Cl)c1 (centres unmarked) [Beispiel 68] | ↓ (15 - < 40) | 20 to 30% |
| CC1=C(C(=O)OCCSCCNCC(O)COc2cccc3ccccc23)C(c2cccc([N+](=O)[O-])c2)C(C(=O)OC(C)C)=C(C)N1 (centres unmarked) [Beispiel 31] | ↓↓ (40 < 65) | 20 to 30% |
